Experimental data published in patent publication US20110318393A1, “Substituted Pyrazole Compounds” (MIIKANA THERAPEUTICS, INC., priority 2008, published 2011).

Key:
[1] = molecular target: T1, N-terminal GST-tagged recombinant human Flt3, residues 564-end (Homo sapiens, UniProt P36888); assay: Flt3 kinase inhibition assay (33P-ATP filter assay); format: biochemical; conditions: 40 minutes, room temperature; less than or equal to 100 nM
T1 construct: recombinant human Flt3, residues 564-end; GST (N); purchased Upstate USA Inc, Charlottesville, Va
T1 sequence (P36888 564-993 limits assumed): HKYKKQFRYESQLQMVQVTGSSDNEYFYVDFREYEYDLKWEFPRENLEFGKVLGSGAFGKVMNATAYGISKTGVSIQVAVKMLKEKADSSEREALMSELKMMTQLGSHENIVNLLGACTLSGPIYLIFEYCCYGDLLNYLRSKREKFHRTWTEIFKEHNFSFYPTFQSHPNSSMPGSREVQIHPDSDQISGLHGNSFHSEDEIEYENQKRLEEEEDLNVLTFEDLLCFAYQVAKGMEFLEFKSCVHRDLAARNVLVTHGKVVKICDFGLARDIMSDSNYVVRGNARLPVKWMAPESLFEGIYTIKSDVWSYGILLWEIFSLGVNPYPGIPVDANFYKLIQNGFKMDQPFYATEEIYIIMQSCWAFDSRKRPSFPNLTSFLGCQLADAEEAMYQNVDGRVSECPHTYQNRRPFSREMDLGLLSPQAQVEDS
Method: Compounds were assayed for Flt3 kinase inhibitory activity using N-terminal GST-tagged recombinant human Flt3, residues 564-end (Upstate USA Inc, 706 Forest Street, Charlottesville, Va.). Serial dilutions of compound were assayed in a final reaction volume of 25 μL by incubating a solution of the above Flt3 kinase (5-10 mU), 8 mM MOPS (3-(N-morpholino)propanesulfonic acid) pH 7.0, 0.2 mM EDTA (ethylenediamine tetracetic acid), 50 μM amino acid sequence EAIYAAPFAKKK (Upstate USA Inc, 706 Forest Street, Charlottesville, Va.), and 10 mM magnesium acetate and [γ-^33P-ATP] (specific activity of about 500 cpm/pmol, concentration as required). The reaction was initiated by the addition of the magnesium acetate and [γ-^33P-ATP] mixture. After incubation for 40 minutes at room temperature, the reaction was stopped by the addition of 5 μL of a 3% phosphoric acid solution. A 10 μL aliquote of the reaction was then spotted onto a P30 filtermat (PerkinElmer, Wellesley, Mass.) and washed three times for five minutes in 75 mM phosphoric acid and once in methanol prior to drying and scintillation counting. Inhibition of Flt3 activity was determined by comparison to assays that contained no inhibitor.

[2] = molecular target: T2, N-terminal His-tagged human Src (Homo sapiens, UniProt P12931); assay: Src kinase inhibition assay (33P-ATP filter assay); format: biochemical; conditions: 40 minutes, room temperature; less than or equal to 100 nM
T2 construct: His (N); purchased Upstate USA Inc, Charlottesville, Va
Method: Compounds were assayed for Src kinase inhibitory activity using N-terminal His-tagged human Src (Upstate USA Inc, 706 Forest Street, Charlottesville, Va.). Serial dilutions of compound were assayed in a final reaction volume of 25 μL by incubating a solution of the above Src kinase (5-10 mU), 8 mM MOPS (3-(N-morpholino)propanesulfonic acid) pH 7.0, 0.2 mM EDTA (ethylenediamine tetracetic acid), 250 μM amino acid sequence KVEKIGEGTYGVVYK (Upstate USA Inc, 706 Forest Street, Charlottesville, Va.), and 10 mM magnesium acetate and [γ-^33P-ATP] (specific activity of about 500 cpm/pmol, concentration as required). The reaction was initiated by the addition of the magnesium acetate and [γ-^33P-ATP] mixture. After incubation for 40 minutes at room temperature, the reaction was stopped by the addition of 5 μL of a 3% phosphoric acid solution. A 10 μL aliquote of the reaction was then spotted onto a P30 filtermat (PerkinElmer, Wellesley, Mass.) and washed three times for five minutes in 75 mM phosphoric acid and once in methanol prior to drying and scintillation counting. Inhibition of Src activity was determined by comparison to assays that contained no inhibitor.

T2 sequence (P12931 whole entry): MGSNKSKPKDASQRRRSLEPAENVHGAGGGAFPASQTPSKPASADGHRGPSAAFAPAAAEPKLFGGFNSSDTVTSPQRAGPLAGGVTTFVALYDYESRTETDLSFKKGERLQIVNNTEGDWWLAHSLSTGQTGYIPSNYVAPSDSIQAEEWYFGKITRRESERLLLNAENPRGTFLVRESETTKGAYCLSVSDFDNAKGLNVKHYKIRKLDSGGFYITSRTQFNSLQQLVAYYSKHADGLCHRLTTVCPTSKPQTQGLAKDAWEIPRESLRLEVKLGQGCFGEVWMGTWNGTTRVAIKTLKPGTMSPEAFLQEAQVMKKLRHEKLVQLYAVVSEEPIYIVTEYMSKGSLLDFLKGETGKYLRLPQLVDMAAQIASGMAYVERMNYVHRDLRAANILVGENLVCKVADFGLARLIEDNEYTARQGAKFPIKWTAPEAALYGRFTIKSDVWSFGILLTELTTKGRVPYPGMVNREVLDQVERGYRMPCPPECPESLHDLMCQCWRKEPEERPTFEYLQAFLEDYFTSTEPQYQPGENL

Row | SMILES | IC50 [1] [nM] | IC50 [2] [nM]
1 | Cc1cc(Nc2cc(N3CCC(N4CCCCC4)CC3)nc(/C=C/c3ccccc3)n2)n[nH]1 [Compound 5, (E)-6-(1,4′-bipiperidin-1′-yl)-N-(5-methyl-1H-pyrazol-3-yl)-2-styrylpyrimidin-4-amine] | ≤ 100 | ≤ 100
2 | Cc1cc(Nc2cc(N3CCN(c4ccncc4)CC3)nc(/C=C/c3ccccc3)n2)n[nH]1 [Compound 22, (E)-N-(5-methyl-1H-pyrazol-3-yl)-6-(4-(pyridin-4-yl)piperazin-1-yl)-2-styrylpyrimidin-4-amine] | ≤ 100 | ≤ 100
